According to patent US4349544A, “Method for increasing the milk let down in mammals” (Ceskoslovenska akademie ved, priority 1976, dated 1982):
“And” between values parts separate entries of the source, which are not always exact repeats. Equal values may be shown once. Each block holds one compound with its values, some of them ahead of it.

How the values were obtained:
[1] = tested on: uterine horn; assay: In situ uterine horn contractions in estrogenized anesthetized female rats; format: in vivo, rat; details: for A = amplitude of contractions as a % of maximal contraction induced by a tetanic dose of 10 mcg/kg oxytocin: equipotent i.v. doses (10 mcg/kg dCOMOT, Me-OT; 1 mcg/kg dOT, OT), n=5; for A = amplitude of contractions as a % of maximal contraction induced by a tetanic dose of 10 mcg/kg oxytocin / C = duration of the response: mean, SEM on next line; for D = the presence of tetany in % of the animal group (single maximal contraction lasting more than 10 min.) / B = contraction frequency per 10 min. in % / C = duration of the response: equipotent i.v. doses (10 or 1 mcg/kg); for B = contraction frequency per 10 min. in %: mean ± SEM
Procedure: 250-300 g body wt female rats (n=5 for each substance) were pre-treated for 3 days with 50 mcg di-ethylstilbestrol and 25 mg progesterone injected once daily i.m. in order to fully "estrogenize" the animals and have them all in the same functional state of myometrial reactivity. They were then anesthetized with urethane and prepared for in situ measurements of uterine horn contractions using Grass force-displacement treansducers and polygraph recording.

[2] = tested on: antidiuretic in the rat; assay: Biological activity F: antidiuretic in the rat; details: in vivo
Text: | F = antidiuretic in the rat.

[3] = tested on: isolated rat uterus; assay: Biological activity A: isolated rat uterus; format: cell-based
Text: | A = isolated rat uterus,

[4] = Partition coefficient between 2-butanol and 0.05% acetic acid; format: physicochemical; details: 2-butanol / 0.05% acetic acid
Text: K = partition coefficient between 2butanol and 0.05% acetic

[5] = tested on: lactational activity; assay: Biological activity E: lactational activity in vivo
Text: | E = lactational activity in vivo

[6] = tested on: isolated rat mammary gland; assay: Biological activity D: isolated rat mammary gland; format: cell-based
Text: | D = isolated rat mammary gland,

[7] = tested on: sows affected with hypogalactia or agalactia; format: in vivo, sow; details: for Litter size (Mean ± s.d.) 7 days after treatment / Litter size (Mean ± s.d.) at day of treatment: dCOMOT 0.6 mg i.v. or i.m., oxytocin 30-50 I.U.; for sows failing to eject milk on the day after treatment: day after 1st treatment; for Mean piglet weight per litter at day of treatment / Litter size (Mean ± s.d.) at day of treatment: day of treatment (baseline); for side effects after treatment: in vivo
[8] = tested on: healthy lactating sows; assay: Milk-let-down effect in healthy lactating sows; format: in vivo, sow
Procedure: The milk-let-down effect of 1-desamino-1-monocarba-([…](OMe))-oxytocin (hereinafter noted as dCOMOT) was tested in healthy lactating sows. The milk-let-down effect of 0.6 mg of dCOMOT injected intravenously lasted for from 4 to 9 hours.

[9] = tested on: in situ rat uterus; assay: Biological activity B: in situ rat uterus; details: in vivo
Text: | B = in situ rat uterus,

[10] = tested on: pregnant cows; assay: Induction of labor in pregnant Czech red-spotted cows; format: in vivo, cow; details: for Duration of Labor: individual animals
Procedure: These experiments were carried out on 13 pregnant `Czech red-spotted` cows ranging from para I to para V. Average pregnancy in this breed is 290 days in duration.
Nine of the animals were 278-290 days after insemination but actual active labor had not yet begun. These animals received no other medication (Table 7).
Four of the animals were estimated to be near to term (cf. Table 4). 48 hours before the actual experiment they received 20 mg dexamethasone i.m. in an attempt to prepare the uterine cervix for active labor. In this group, in addition to close clinical follow-up, measurements were also made of: body temp., hemoglobin (Hb), glucose, total protein, inorganic P, Ca and Mg concentrations in the blood, both in the cow during the experiment and in the calf after birth, all by standard methods.
The standard i.v. (jugular) injection dosage of dCOMOT was 5 mg. In those cases in which labor lasted longer than 6 hours (cf. Results) in second injection was given.
The first group of 9 cows was managed under field conditions--in the barns of local farms. The four animals under more intensive study were kept in stalls set aside in a research building for one week prior to the onset of the experiment and for 3 weeks following delivery for further postnatal observations.

[11] = sow, as in all other mammals; cited from earlier work
[12] = tested on: uterus of gilts; format: in vivo, gilt; details: i.v., OT 1 to 5 IU, dCOMOT 0.2 to 1.0 mg
Procedure: Four gilts were used. The experiments stated about 24 hours after onset of their second or third estrus. Their cycle duration was in the range 19-22 days. They were anesthetized by i.v. administration of about 15 mg/kg Na thionembutal (in 5% (w/v) solution)--additional doses were required during the experiment. The uterus was exposed through a midline abdominal incision. A recording balloon-tipped catheter was inserted into each uterine horn through a small incision about 10 cm from the uterine body (Clay-Adams catheters, PE 90-0.86 mm i.d.×1.27 mm o.d., with a micro-balloon sealed over the tip with a double tie of 0000 silk suture). The recording system was filled with saline and each catheter was affixed to the uterine wall with 000 silk suture to prevent motion of the balloon in the lumen. The catheters exited through the mid-abdominal incision and were connected to P-23AC pressure transducers, thence to 7PL DC preamplifiers. When we were satisfied that the recording system was functioning the abdominal incision was closed about the catheters. […] Unfortunately there was not enough material for a full scale dose-response investigation.

[13] = tested on: myometrium; details: relative to oxytocin; cited from earlier work

D = the presence of tetany in % of the animal group (single maximal contraction lasting more than 10 min.) [1]: 60%
Compound: 1-deamino-OT [d OT]
A = amplitude of contractions as a % of maximal contraction induced by a tetanic dose of 10 mcg/kg oxytocin [1]: 92%
B = contraction frequency per 10 min. in % [1]: 65 ± 6.2%
C = duration of the response [1]: 46 min

K = partition coefficient [4]: 3.15
D = the presence of tetany in % of the animal group (single maximal contraction lasting more than 10 min.) [1]: none
health of calves ([10]; Group I): All the calves were healthy
uterine tetany during induced labor ([10]; Group I, non-pretreated cows): no evidence of uterine tetany whatsoever
health of calves ([10]; Group II): all calves were healthy
uterine tetany during induced labor ([10]; Group II, dexamethasone pretreated cows): In no cases was uterine tetany observed
Progeny Serum ([10]; Group II, dexamethasone pretreated cows, individual calves): 7.4
Compound: 1-desamino-1-monocarba-(2-Tyr(OMe))-oxytocin [Ic]
Biological activities F = antidiuretic in the rat [2]: 0.9 IU/mg
Biological activities A = isolated rat uterus [3]: 10 IU/mg
Biological activities E = lactational activity in vivo [5]: 35 IU/mg
Biological activities D = isolated rat mammary gland [6]: 67 IU/mg
piglet weight gain during the observation period versus oxytocin group ([7]; 7 day observation period): gained more weight
Mean piglet weight per litter 7 days after treatment [7]: 2.64 ± 0.62 kg
Litter size (Mean ± s.d.) 7 days after treatment [7]: 8.92 ± 1.85
sows failing to eject milk on the day after treatment [7]: None
Mean piglet weight per litter at day of treatment [7]: 1.44 ± 0.37 kg
Litter size (Mean ± s.d.) at day of treatment [7]: 10.16 ± 1.65
side effects after treatment [7]: No side effects were observed
duration of secondary oscillation in intramammary pressure ([8]; 0.6 mg intravenously, healthy lactating sows): at least 4 hours
milk-let-down response after intramuscular injection ([8]; intramuscular injection, compared with i.v.): approximately the same response
Biological activities B = in situ rat uterus [9]: 40 IU/mg
A = amplitude of contractions as a % of maximal contraction induced by a tetanic dose of 10 mcg/kg oxytocin [1]: 65%
B = contraction frequency per 10 min. in % [1]: 60 ± 5.3%
C = duration of the response [1]: 185 min
Mean duration of labor from the dCOMOT injection ([10]; Group I, 9 non-pretreated cows, mean ± SEM): 14.25 ± 5.1 h
response following injection ([10]; Group I, non-pretreated cows, all cases): onset of regular uterinne contractions and increased tension in the udder
Duration of Labor ([10]; Group I, non-pretreated cows, dCOMOT i.v.): 26 h and 34 h and 22.5 h and 6 h and 24.5 h and 10 h and 1.5 h and 7 h and 15 h
mean duration of labor ([10]; Group II, 4 dexamethasone pretreated cows): 4.3 ± 2.1 h
Duration of Labor ([10]; Group II, cows pretreated with 20 mg dexamethasone i.m. 48 hours before, listed as dCOMOT): 0.7 h and 8.2 h and 8.8 h and 8.6 h
start of active labor after injection ([10]; Group II, dexamethasone pretreated cows, all cases): within minutes

D = the presence of tetany in % of the animal group (single maximal contraction lasting more than 10 min.) [1]: 60%
Compound: CC[C@H](C)[C@@H]1NC(=O)[C@H](Cc2ccc(O)cc2)NC(=O)[C@@H](N)CSSC[C@@H](C(=O)N2CCC[C@H]2C(=O)N[C@@H](CC(C)C)C(=O)NCC(N)=O)NC(=O)[C@H](CC(N)=O)NC(=O)[C@H](CCC(N)=O)NC1=O [oxytocin, reference compound]
Mean piglet weight per litter 7 days after treatment [7]: 2.28 ± 0.44 kg
Litter size (Mean ± s.d.) 7 days after treatment [7]: 9.10 ± 2.10
sows failing to eject milk on the day after treatment [7]: Four out of 17
Mean piglet weight per litter at day of treatment [7]: 1.40 ± 0.22 kg
Litter size (Mean ± s.d.) at day of treatment [7]: 10.00 ± 1.95
side effects after treatment [7]: No side effects were observed
duration of rapid increase of the intramammary pressure ([8]; 5-10 I.U. intravenous, healthy lactating sows): 5 to 10 min
biochemical half-life of injected hormone [11]: only a few minutes
A = amplitude of contractions as a % of maximal contraction induced by a tetanic dose of 10 mcg/kg oxytocin [1]: 90%
B = contraction frequency per 10 min. in % [1]: 43 ± 3.2%
C = duration of the response [1]: 10.4 min
contraction rate after injection (baseline 6/10 min) [12]: 8/10
response duration ([12]; anesthetized gilts): approximately 10 min

D = the presence of tetany in % of the animal group (single maximal contraction lasting more than 10 min.) [1]: none
Compound: [2-Tyr(OMe)]-OT [Me--OT]
contractile activity on the myometrium in comparison with the natural hormone [13]: one tenth
vasoconstrictor activity in the myometrium in comparison with the natural hormone [13]: one hundredth
A = amplitude of contractions as a % of maximal contraction induced by a tetanic dose of 10 mcg/kg oxytocin [1]: 68%
B = contraction frequency per 10 min. in % [1]: 42 ± 5.4%
C = duration of the response [1]: 20.6 min
